In test [1] the test system is mitogen-stimulated thymocyte proliferation. The experiment in a line: LAF, mitogen-stimulated thymocyte proliferation assay. Type of test: cell-based, murine.
Test [2] has as its target T1, 210 kDa Protein (Homo sapiens, UniProt P42345+P62942).
T1 construct: These proteins are isolated from membrane preparations of Molt 4 T cell leukemia; endogenous in cells; host or cells: Molt 4 cells (CHAPSO-solubilized membrane fraction); The partner GST-FKBP12 was made in house in recombinant E. coli (pGEX-FKBP)
The experiment in a line: Affinity isolation of the 210 kDa protein from Molt 4 membrane preparations with GST-FKBP12 complexed to rapamycin or analog (binding of analog-FKBP12 complexes). The settings on record: isolation procedure of Example 1, Molt 4 cells.
Method: Molt 4 cells (1×10^9) were grown in standard media (RPMI 1640 containing 100 U/ml pennicillin, 100 ug/ml L-glutamine, 10% FCS). The cells were harvested and rinsed 3× with PBS (50 mM phosphate buffer, pH 7.0, 150 mM NaCl), flash frozen in dry-ice ethanol bath and stored at −80° C. On ice, the cells were thawed and lysed using a dounce homogenizer with B pestle in 5 ml of buffer A (10 mM Hepes, pH 7.5, 20 mM KCl, 1 mM EDTA, 0.4 mM PMSF and 2 mM 2-ME). After the debris was cleared by centrifugation at 1600 g for 10 min. and the membrane fraction was concentrated by 100,000 g centrifugation (1 hour), the 100,000 g pellet was incubated in 3 ml buffer B (50 mM Tris, pH 7.2, 100 mM NaCl, 20 mM KCl, 0.2 mM PMSF, 1 mM 2-ME, 2 mM CaCl2, 2 mM MgCl2, 5 μg/ml aprotinin, leupeptin, pepstatin A and antipain), containing 12 mM CHAPSO for two hours at 4° C. The solubilized membrane proteins were separated from the debris by a 100,000 g centrifugation. […] The supernatant was then incubated for 2 hours at 4° C. with 100 ul glutathione resin (1:1 Buffer B). Nonspecific proteins were rinsed 5× with buffer C (buffer B+0.1% Triton×100) and the proteins eluted from the resin in Laemli buffer by incubation at 95° C. for 3 minutes and microcentrifugation. The proteins were separated by size using a 7% SDS-PAGE followed by silver stain.

A further test concerns the target FKBP12 (Homo sapiens, UniProt P62942). The experiment in a line: Inhibition of PPIase activity of FKBP12. Type of test: biochemical. The note with it: read-out: PPlase(Ki).
For test [3], the target named is 210 kDa Protein (Homo sapiens, UniProt P42345). The experiment in a line: Modified isolation procedure: no exogenous FKBP, streptavidin-conjugated resin in place of glutathione resin. Type of test: binding.

Molecules are shown by their SMILES.

Sequence of FKBP12 (P62942 whole entry, species assumed): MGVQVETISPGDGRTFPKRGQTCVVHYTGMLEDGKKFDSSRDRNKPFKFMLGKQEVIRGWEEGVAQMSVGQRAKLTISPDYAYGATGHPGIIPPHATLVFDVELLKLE
T1 sequence (P62942 whole entry, other chains not shown): as the sequence (P62942 whole entry, species assumed) above

Usually IC50 stands for the concentration that inhibits the measured activity by half. Read a high IC50 as weaker potency. For the compound `C=CC[C@@H]1/C=C(\C)C[C@H](C)C[C@H](OC)[C@H]2O[C@@](O)(C(=O)C(=O)N3CCCC[C@H]3C(=O)O[C@H](/C(C)=C/[C@@H]3CC[C@@H](O)[C@H](OC)C3)[C@H](C)[C@@H](O)CC1=O)[C@H](C)C[C@@H]2OC` [FK506], 3 nM corresponded to half-maximal inhibition in test [1] (Mus musculus, Thymocyte) (IC50).

The compound `CO[C@H]1C[C@@H]2CC[C@@H](C)[C@@](O)(O2)C(=O)C(=O)N2CCCC[C@H]2C(=O)O[C@H]([C@H](C)C[C@@H]2CC[C@@H](O)[C@H](OC)C2)CC(=O)[C@H](C)/C=C(\C)[C@@H](O)[C@@H](OC)C(=O)[C@H](C)C[C@H](C)/C=C/C=C/C=C/1C` [RAPA, Rapamycin] came in with an IC50 in test [1] (Mus musculus, Thymocyte) of 6 nM. Compared with the last compound, the IC50 is about 2-fold higher.

As a reminder, the Ki is a dissociation constant, usually derived from enzyme kinetics or from competition with a known ligand. Take `COC1CC2CCC(C)C(O)(O2)C(=O)C(=O)N2CCCCC2C(=O)OC(C(C)CC2CCC(O)C(OC)C2)CC(=O)C(C)/C=C(\C)C(O)CC(=O)C(C)CC(C)/C=C/C=C/C=C/1C` (stereo not shown) [demethoxyrapamycin]: at 210 kDa Protein [2], the “210 kDa protein isolated with compound:GST-FKBP12 complex (in words)” value is reported as “same proteins were isolated”. Besides, 58 nM corresponded to half-maximal inhibition in test [1] (mitogen-stimulated thymocyte proliferation, FK506: mechanism of action is different) (IC50). The Ki on FKBP12 came out at 4.4 nM.

Take `COC1CC2CCC(C)C(O)(O2)C(=O)C(=O)N2CCCCC2C(=O)OC(C(C)CC2CCC(OC(=O)CNC(=O)CCCCC3SCC4NC(=O)NC43)C(OC)C2)CC(=O)C(C)C=C(C)C(O)C(OC)C(=O)C(C)CC(C)C=CC=CC=C1C` (stereo not shown) [rapamycin-42-biotin glycinate ester]: in test [1], the “immunosuppressive activity in the LAF assay (in words)” value is “equivalent immunosuppressive activity”. The “210 kDa protein isolated by modified procedure (in words)” value on 210 kDa Protein [3] is “Only background levels”.

The record behind these values is US6713607B2 (Wyeth, priority 1994, dated 2004).
